Assay results published in patent US9101556B2, “Therapeutic agent and therapeutic device for alleviating ischemia-reperfusion injury” (priority 2010, dated 2015).

Tested on: myocardial ischemia-reperfusion injury
Assay: Murine myocardial ischemia-reperfusion injury model (60 min LAD ligation, then reperfusion); infarcted area by Evans blue/TTC staining
Assay type: in vivo, C57BL/6J male mice
Conditions: inhalation from 5 min before until 30 min after start of reperfusion; measured 24 h after reperfusion; vs control (oxygen only); t-test p<0.01
Description: 10-week old C57BL/6J male mice were used for the experiment. […] However, during this period, the animals were allowed to take ad libitum the antibiotic-containing water. […] After intraperitoneal administration of pentobarbital as an anesthetic and tracheal intubation, each animal was connected to an animal ventilator for respiration care. The left thorax was shaven and disinfected to carry out thoracotomy, and the left anterior descending coronary artery was ligated with a silk thread to maintain a state of ischemia for 60 minutes. The silk thread used for ligation was then released to cause reperfusion. Reperfusion was confirmed by the restart of blood flow. After confirming reperfusion, the thorax was closed, and ventilator care was continued until the animal awakened from anesthesia. After awakening from anesthesia, the tube was removed, and the animal received care in indoor air. […] Based on the image which was obtained, each heart section was measured for the area of the LV (left ventricle), the AAR (area at risk=the ischemic area), and the area of Nec (necrosis; the infarcted area) using ImageJ image processing software to calculate the value of AAR/LV (proportion of the ischemic area in the left ventricle) and that of Nec/AAR (proportion of the infarcted area in the ischemic area). […]

Molecule: [HH] [hydrogen]
- Nec/AAR (proportion of the infarcted area in the ischemic area) compared with the control group: decreased

Molecule: nitrogen monoxide
- Nec/AAR (proportion of the infarcted area in the ischemic area) compared with the control group: decreased
